Read-outs that look alike come from different tables or passages of the source.
Tests used:
[1] = Pharmacokinetic study in rats after intraperitoneal injection (UHPLC-MS/MS); type: in vivo, Sprague Dawley rats; conditions: for Cmax / AUC(0-inf) / AUC(0-t) / Tmax / half-life: ip
Method: (§1) The validated UPLC-MS/MS method was successfully applied to the pharmacokinetic study and tissue distribution in rats after an intraperitoneal injection of 84-B10 (0.36 mg/kg). […] Two hours later, the plasma concentration tended to flatten out, with a concentration of approximately 10 ng/mL. AUC0–t and AUC0–∞ were 269 and 278 h*ng/mL, respectively. After an intraperitoneal administration, 84-B10 could be detected in different tissues, indicating a wide distribution (Figure 4). The compound rapidly distributed and reached maximum concentration at 0.033 h for most tissues. […] In most tissues, 84-B10 was eliminated at 8 h.
84-B10 was determined and quantified by ExionLC system coupled with SCIEX 4500 triple quadrupole mass spectrometers (SCIEX, Framingham, MA, USA). A phenyl HPLC column (50 × 2.1 mm, 3 μm) (YMC, Kyoto, Japan) was used for separation. Methanol was selected as the organic phase as it could better reflect the π-π selectivity between benzene and the chromatographic column. An amount of 5 mM ammonium formate was added into water to adjust the dissociation of 84-B10 and to improve the chromatographic peak. The flow rate was 0.3 mL/min with gradient elution (Table 8).
(§2) After one week of adaptive feeding, pharmacokinetic experiments were conducted. 84-B10 (0.36 mg/kg) solution was injected and blood was collected into tubes containing heparin sodium at 0.033, 0.083, 0.25, 0.5, 1, 2, 4, 6 and 8 h after administration. Blood was centrifuged at 8000 rpm for 5 min to obtain the plasma. The tissue was accurately weighed and ground with pure water (w:v, 1:5) to obtain homogenate. An amount of 50 µL of biological matrix was precipitated with 200 μL of methanol containing IS (Ginkgolide J, 2 μg/mL). After vortexing for 5 min, the samples were centrifuged at 12,000 rpm for 5 min and the supernatant was taken for injection.

[2] = Tissue distribution in rats after intraperitoneal injection; type: in vivo, Sprague Dawley rats; conditions: intraperitoneal 0.36 mg/kg
Method: as §1, §2

[3] = Stability of 84-B10 in rat plasma under different storage conditions; type: in vitro ADME; conditions: n = 6
Method: The method was validated according to the Bioanalytical Method Validation Guidance for Industry issued by Food and Drug Administration of USA in 2018. In short, blank plasma from six different rats was collected and spiked with or without LLOQ working solutions to evaluate the sensitivity. The linear least square method was used to fit the standard curve, and the weighting coefficient was 1/x^2. The precision and accuracy were evaluated by analyzing three different concentrations of quality control samples in three consecutive days. Blank plasma was first precipitated with methanol and then spiked with QC working solutions into supernatant. The peak area was compared with QC samples to estimate the extraction recovery. Alternatively, blank plasma was replaced with ultrapure water and mixed with QC working solutions. The matrix effect was then evaluated. For stability evaluation, different concentrations of QC samples were stored at room temperature for 2 h, frozen–thawed for three cycles, or stored in an auto-sampler (extracted samples, 4 °C) for 24 h and then analyzed.

[4] = design: method as in PMID 36629048; conditions: mice, intraperitoneal 5 mg/kg, plasma, non-compartmental WinNonlin 7.0 on concentrations from previous publication; cited from earlier work
[5] = target: Lon protease 1 (LONP1); design: method as in PMID 36629048; conditions: cited from earlier work
[6] = system: LonP1; design: method as in PMID 36629048; conditions: cited from earlier work
[7] = system: cisplatin-induced acute kidney injury; design: method as in PMID 36403736, PMID 36629048; conditions: mice, 5 mg/kg; cited from earlier work
[8] = system: renal fibrosis induced by unilateral ureteral obstruction (UUO) or unilateral ischemia reperfusion injury (UIRI); design: method as in PMID 36403736, PMID 36629048; conditions: mice, dose of 0.5–7.5 mg/kg; cited from earlier work
[9] = Sprague Dawley, rat, plasma, single intraperitoneal injection 0.36 mg/kg, female, mean ± SD
[10] = Sprague Dawley, rat, plasma, single intraperitoneal injection 0.36 mg/kg, male, mean ± SD
[11] = both sexes, Sprague Dawley, rat, plasma, single intraperitoneal injection 0.36 mg/kg, total (male and female), mean ± SD
[12] = extracted rat plasma samples, autosampler 4 °C for 24 h, spiked 3 ng/mL
[13] = extracted rat plasma samples, autosampler 4 °C for 24 h, spiked 300 ng/mL
[14] = extracted rat plasma samples, autosampler 4 °C for 24 h, spiked 750 ng/mL
[15] = rat plasma, room temperature for 2 h, spiked 3 ng/mL
[16] = rat plasma, room temperature for 2 h, spiked 300 ng/mL
[17] = rat plasma, room temperature for 2 h, spiked 750 ng/mL
[18] = rat plasma, three freeze–thaw cycles, spiked 3 ng/mL
[19] = rat plasma, three freeze–thaw cycles, spiked 300 ng/mL
[20] = rat plasma, three freeze–thaw cycles, spiked 750 ng/mL

Cmax ([1]; Sprague Dawley, rat, intraperitoneal 0.36 mg/kg, plasma, non-compartmental WinNonlin 7.0, read-out: Cmax, observed): 257 ng/mL | concentration at 2 h ([1]; Sprague Dawley, rat, plasma, intraperitoneal 0.36 mg/kg, 2 h after injection, curve flattens out, read-out: plasma concentration two hours later): ~10 ng/mL | AUC(0-inf) [1, 9]: 241 ± 29 ng·h/mL | AUC(0-t) [1, 9]: 233 ± 27 ng·h/mL | Tmax [1, 9]: 8.4 ± 6 min | half-life [1, 9]: 25.8 ± 2.4 min | Cmax ([1]; Sprague Dawley, rat, plasma, single intraperitoneal injection 0.36 mg/kg, female, mean ± SD, read-out: Cmax): 231 ± 2.08 ng/mL | AUC(0-inf) [1, 10]: 315 ± 31 ng·h/mL | AUC(0-t) [1, 10]: 305 ± 30.2 ng·h/mL | Tmax [1, 10]: 11.4 ± 6 min | half-life [1, 10]: 27 ± 1.2 min | Cmax ([1]; Sprague Dawley, rat, plasma, single intraperitoneal injection 0.36 mg/kg, male, mean ± SD, read-out: Cmax): 284 ± 48.2 ng/mL | AUC(0-inf) [1, 11]: 278 ± 48.9 ng·h/mL | AUC(0-t) [1, 11]: 269 ± 47.3 ng·h/mL | Tmax [1, 11]: 10.2 ± 5.4 min | half-life [1, 11]: 26.4 ± 1.8 min | Cmax ([1]; both sexes, Sprague Dawley, rat, plasma, single intraperitoneal injection 0.36 mg/kg, total (male and female), mean ± SD, read-out: Cmax): 257 ± 42.4 ng/mL | gender difference in the absorption ([1]; intraperitoneal 0.36 mg/kg, male vs female): no significant gender difference | Cl, observed ([1]; intraperitoneal 0.36 mg/kg, plasma, non-compartmental WinNonlin 7.0): 22.2 mL/min/kg | CL ([1]; single intraperitoneal injection 0.36 mg/kg, female, mean ± SD): 1509 ± 177 mL/h/kg | CL ([1]; single intraperitoneal injection 0.36 mg/kg, male, mean ± SD): 1149 ± 119 mL/h/kg | CL ([1]; single intraperitoneal injection 0.36 mg/kg, total (male and female), mean ± SD): 1329 ± 239 mL/h/kg | Tmax ([2]; Sprague Dawley, rat, most tissues (tissue homogenate), ip, most tissues, read-out: time of maximum concentration in most tissues): 1.98 min | time at which eliminated in most tissues ([2]; most tissues): 8 h | Measured Concentrations [3, 12]: 3.15 ± 0.11 ng/mL | RE [3, 12]: 5.00% | Measured Concentrations [3, 13]: 299 ± 10 ng/mL | RE [3, 13]: −0.33% | Measured Concentrations [3, 14]: 710 ± 27 ng/mL | RE [3, 14]: −5.38% | Measured Concentrations [3, 15]: 2.96 ± 0.10 ng/mL | RE [3, 15]: −1.50% | Measured Concentrations [3, 16]: 278 ± 3 ng/mL | RE [3, 16]: −7.44% | Measured Concentrations [3, 17]: 670 ± 15 ng/mL | RE [3, 17]: −10.7% | Measured Concentrations [3, 18]: 2.87 ± 0.29 ng/mL | RE [3, 18]: −4.22% | Measured Concentrations [3, 19]: 287 ± 20 ng/mL | RE [3, 19]: −4.28% | Measured Concentrations [3, 20]: 684 ± 18 ng/mL | RE [3, 20]: −8.87%
Compound: COc1ccc(Oc2ccc(C(F)(F)F)cc2NC(=O)CC(CC(=O)O)c2ccccc2)cc1 (stereo not shown) [84-B10, 5-[[2-(4-methoxyphenoxy)-5-(trifluoromethyl)phenyl]amino]-5-oxo-3-phenylpentanoic acid]
tissues with highest concentration [2]: most concentrated in the intestine, stomach, liver, kidney and lung | AUC0→t, observed [4]: 1327 ng·h/mL | Cl, observed [4]: 56.8 mL/min/kg | Cmax, observed [4]: 2038 ng/mL | Vd, observed [4]: 11.20 L/kg | Kd ([5]; previous research, read-out: binding affinity): 312 nM | binding affinity ([5]; same value expressed in ng/mL): 147 ng/mL | LonP1 activation [6]: new LonP1 activator | therapeutic effect on cisplatin-induced acute kidney injury [7]: significant therapeutic effect | effect on renal fibrosis induced by UUO or UIRI [8]: dose-dependently alleviated renal fibrosis
